The source of these data is article PMC13539321 (Journal of Advanced Research, 2025).

For series [1], the target named is Mushroom TYR (EC 1.14.18.1) (Agaricus bisporus, UniProt C7FF04). Description: biochemical. The conditions noted are these: IC50 value ± SD.
In another series the target is mushroom TYR (Agaricus bisporus, UniProt C7FF04). Description: biochemical. It counts as binding.
Series [2] concerns B16F10 cells. As to the kind of experiment: Cytotoxicity assay. It counts as cell-based. The conditions noted are these: 100 μM, 72 h.
For series [3], the system named is A375 cells. Description: Cytotoxicity assay. The note with it: 72 h. It counts as cell-based.
For series [4], the system named is B16F10 cells. Description: Intracellular melanogenesis inhibition assay, B16F10. The series is classed as cell-based. The note with it: melanotan II 100 nM, 72 h.
The test system of series [5] is A375 cells. As to the kind of experiment: Intracellular melanogenesis inhibition assay, A375. The series is classed as cell-based. The conditions noted are these: melanotan II 100 nM, 72 h, all tested concentrations.
The test system of the next series is 3D melanin skin model. As to the kind of experiment: 3D human skin model assay. The note with it: 100 µM, six doses, UVB 50 mJ/cm^2 for seven days, n = 6. The series is classed as cell-based.
The next series in a line: Plasma stability study. The series is classed as in vitro ADME. The note with it: human.
The conditions of series [6]: human, microsomes.
A further series in a line: in vitro. The conditions noted are these: human, microsomes.

Mushroom TYR (EC 1.14.18.1), sequence (C7FF04 1-392 limits assumed): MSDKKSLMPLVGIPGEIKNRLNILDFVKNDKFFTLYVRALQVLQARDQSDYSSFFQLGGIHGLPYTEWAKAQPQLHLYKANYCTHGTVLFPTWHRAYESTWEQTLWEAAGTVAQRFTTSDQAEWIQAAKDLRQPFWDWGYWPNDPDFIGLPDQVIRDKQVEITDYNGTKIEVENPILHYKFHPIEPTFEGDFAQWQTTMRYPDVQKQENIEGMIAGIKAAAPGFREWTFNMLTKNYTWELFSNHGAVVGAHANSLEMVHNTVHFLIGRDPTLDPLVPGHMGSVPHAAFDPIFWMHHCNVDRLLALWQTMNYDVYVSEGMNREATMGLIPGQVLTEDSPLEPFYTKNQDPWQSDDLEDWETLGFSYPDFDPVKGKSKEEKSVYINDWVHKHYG
mushroom TYR, sequence (C7FF04 1-392 limits assumed): as above

For the compound `Cc1ccc(CN2CCN(C(=O)/C=C/c3ccc(O)cc3O)CC2)cc1` [Compound V-24, (E)-3-(2,4-dihydroxyphenyl)-1-(4-(4-methylbenzyl)piperazin-1-yl)prop-2-en-1-one], the values for the IC50 in series [1] (L-dopa) and in series [1] (L-tyrosine) were 18 ± 0.7 nM and 20 ± 1 nM, respectively. The Kd at mushroom TYR is 13800 ± 4200 nM. Also, the values for the cytotoxicity result in the series with B16F10 cells [2], in the series on A375 cells [3] (100 μM) and in the series on A375 cells [3] (200 μM) were “no cytotoxicity”, “no cytotoxicity” and “weak cytotoxicity”, respectively. The “order of inhibitory effectiveness (macroscopic colour)” value in the series on B16F10 cells [4] (100 μM) is “compound V-24 > β-arbutin > kojic acid ≈ compound V”. Further, the “inhibitory effect on melanin synthesis” value in the series on B16F10 cells [4] (various concentrations) is “akin to that of β-arbutin”; in the series on A375 cells [5] it was “most pronounced inhibitory effect”. This compound had a L value in the series on 3D melanin skin model of 83.38 ± 0.40. Moreover, the half-life at 1 µM in the series “Plasma stability study” amounted to 8.74 h; in “in vitro”, 0.58 h. In addition, the fraction remaining at 2 h, 1 µM in the series “Plasma stability study” stood at 89.1%. The Eh in series [6] is 69.00%. The amount remaining at 0.75 h, 1 µM in “in vitro” came out at 42%.
